Measured values taken from PMC8688997, “Five Constituents Contributed to the Psoraleae Fructus-Induced Hepatotoxicity via Mitochondrial Dysfunction and Apoptosis” (Frontiers in Pharmacology, 2021).
Entries after “also recorded” stand apart in the source; their conditions may differ. Read-outs that look alike come from different tables or passages of the source.

What was measured:
[1] = tested on: L02 and HepG2 cells; assay type: cell-based; details: human, 24 h
Description: (§1) Here, L02 and HepG2 cells were plated at a density of […] in 96-well plates. Then, they were treated with bavachin (17, 34, and 68 μmol/L), psoralidin (11.5 23, and 46 μmol/L), bavachinin (15, 30, and 60 μmol/L), neobavaisoflavone (23.5, 47, and 94 μmol/L), and bakuchiol (13, 26, and 52 μmol/L) for 24 h. Then Hoechst 33342, eBioscience™ JC-1 Mitochondrial Membrane Potential Dye, CellROX Deep Red, and HCS LipidTOX™ Green Phospholipidosis Detection Reagent kits were used to characterize their cell counts, nuclear area, MMP, ROS, and intracellular lipid. Consequently, multi-parameter cytotoxicity was analyzed through high-content screening (HCS) analysis (IN Cell Analyzer 2500 HS; Cytiva, Marlborough, MA, USA). Then, a 20× objective was used to collect all images. Three independent wells were examined for each treatment, and 16 fields per well were captured during the analysis. Lastly, HCS analysis was performed using Automated Image and Cell Analysis software (IN Cell Analyzer 2000; USA).

[2] = tested on: HepG2 cells; assay: HCS CellROX Deep Red ROS assay, HepG2 cells; assay type: cell-based, human
Description: as §1

[3] = tested on: L02 and HepG2 cells; assay: Annexin V-FITC/PI flow cytometry apoptosis assay, L02 and HepG2 cells not distinguished; assay type: cell-based, human
Description: (§2) First, L02 and HepG2 cells were cultured in 6-well plates at a density of 5 × 10^5 cells/well. Then, they were treated with bavachin (17, 34, and 68 μmol/L), psoralidin (11.5, 23, and 46 μmol/L), bavachinin (15, 30, and 60 μmol/L), neobavaisoflavone (23.5, 47, and 94 μmol/L), and bakuchiol (13, 26, and 52 μmol/L) for 48 h, harvested, and washed with PBS. The apoptosis rate was measured using Pharmingen™ FITC Annexin V Apoptosis Detection Kit I (BD, 556,547, USA) following the instructions from the manufacturer. With the use of a FACSCalibur cytometer (Becton Dickinson, San Jose, CA, USA), 1 × 10^4 cells were acquired and analyzed.

[4] = tested on: L02 cells; assay: Annexin V-FITC/PI flow cytometry apoptosis assay, L02 cells; assay type: cell-based, human; details: 48 h
Description: as §2

[5] = tested on: L02 and HepG2 cells; assay: CCK-8 cell viability assay, L02 and HepG2 cells not distinguished; assay type: cell-based, human; details: for IC50: read-out: IC50 value (approximate, discussion); for effect on cell viability / hepatocyte toxicity (in words): L02 and HepG2 cells
Description: (§3) L02 and HepG2 cells were purchased from the China Infrastructure of Cell Line Resources (Beijing, China). They were cultured in Dulbecco’s modified Eagle’s medium (DMEM) high glucose medium (Gibco, Grand Island, NY, USA) supplemented with 10% (v/v) fetal bovine serum (FBS) (Gibco, Melbourne, VIC, Australia) and 1% U/ml of antibiotics (penicillin and streptomycin) at 37°C in an atmosphere containing 5% CO2.
The viability of L02 and HepG2 cells was determined using the CCK-8 assay. L02 and HepG2 cells (1 × 10^4 cells/well) were seeded into 96-well plates for 12 h until they visibly reached confluence. […] Consequently, these cells were incubated for 24 h, and 100 μl of 10% (v/v) CCK-8 medium solution was added to each well for 2 h. The absorbance (optical density (OD)) of the culture medium was detected at 450 nm using a Multiskan GO microplate reader (Thermo Fisher Scientific). Each experiment was repeated thrice, and each treatment was probed in at least six wells. The following equation was used to calculate the viability of the cells (%): Cell Viability (%)=ODcompound−ODblank/ODcontrol−ODblank×100%

[6] = tested on: L02 cells; assay: HCS LipidTOX Green intracellular lipid assay, L02 cells; assay type: cell-based, human; details: 24 h
Description: as §1

[7] = tested on: L02 and HepG2 cells; assay type: cell-based, human
Description: (§4) L02 and HepG2 cells were cultured in 6-well plates at a density of 2 × 10^5 cells/well. Subsequently, they were incubated with bavachin, psoralidin, bavachinin, neobavaisoflavone, and bakuchiol for 24 h, and the cell supernatant was collected. Lastly, aspartate aminotransferase (AST), alanine aminotransferase (ALT), and ALP were detected using a CX4 Pro automatic biochemical analyzer (Beckman, Brea, CA, USA).

[8] = tested on: L02 cells; assay: CCK-8 cell viability assay, L02 cells; assay type: cell-based, human
Description: as §3
(§5) The viability of L02 and HepG2 cells was determined using the CCK-8 assay. L02 and HepG2 cells (1 × 10^4 cells/well) were seeded into 96-well plates for 12 h until they visibly reached confluence. Then, the adherent cells were treated with varying concentrations of psoralen (120.86, 161.34, 215.12, 286.83, 382.44, 509.92, 679.90, and 906.53 μmol/L), isopsoralen (161.15, 214.87, 286.64, 382.47, 509.88, 679.85, 906.53, and 1,208.64 μmol/L), bavachin (16.40, 21.95, 29.23, 38.97, 52.04, 69.37, 92.49, and 123.32 μmol/L), psoralidin (8.92, 11.89, 15.82, 21.17, 28.19, 37.58, 50.19, and 66.90 μmol/L), bavachinin (11.82, 15.72, 21.04, 28.01, 37.35, 49.88, 66.49, and 88.65 μmol/L), neobavaisoflavone (5.21, 9.30, 16.50, 29.41, 52.36, 93.07, 165.53, and 294.46 μmol/L), and bakuchiol (11.70, 15.60, 20.75, 27.77, 36.97, 49.30, 65.84, and 87.76 μmol/L). Consequently, these cells were incubated for 24 h, and 100 μl of 10% (v/v) CCK-8 medium solution was added to each well for 2 h. The absorbance (optical density (OD)) of the culture medium was detected at 450 nm using a Multiskan GO microplate reader (Thermo Fisher Scientific). Each experiment was repeated thrice, and each treatment was probed in at least six wells. The following equation was used to calculate the viability of the cells (%): Cell Viability (%)=ODcompound−ODblank/ODcontrol−ODblank×100%

[9] = tested on: HepG2 cells; assay: CCK-8 cell viability assay, HepG2 cells; assay type: cell-based, human
Description: as §3, §5

[10] = tested on: HepG2 cells; assay: HCS LipidTOX Green intracellular lipid assay, HepG2 cells; assay type: cell-based, human; details: 24 h
Description: as §1

[11] = tested on: L02 cells; assay: HCS CellROX Deep Red ROS assay, L02 cells; assay type: cell-based, human; details: only at 68 μmol/L, 24 h
Description: as §1

[12] = tested on: L02 cells; assay: ALP, ALT and AST in cell culture supernatant, L02 cells; assay type: cell-based, human
Description: as §4

[13] = tested on: L02 and HepG2 cells; assay: HCS LipidTOX Green intracellular lipid assay, L02 and HepG2 cells not distinguished; assay type: cell-based, human
Description: as §1

[14] = tested on: HepG2 cells; set-up: method as in Yu et al., 2020; details: another report; ref Yu et al., 2020; read-out: concentration inhibiting 50% cell viability; cited from earlier work
[15] = tested on: HepG2 cells; assay: ALP, ALT and AST in cell culture supernatant, HepG2 cells; assay type: cell-based, human; details: 46 μmol/L, 24 h
Description: as §4

[16] = tested on: L02 and HepG2 cells; assay: HCS JC-1 mitochondrial membrane potential (MMP) assay, L02 and HepG2 cells; assay type: cell-based, human; details: 60 μmol/L; 24 h
Description: as §1

[17] = Homo sapiens, HepG2, cell line not distinguished
[18] = Homo sapiens, L02, CCK-8, incubation 24 h or 48 h, read-out: IC50 toward L02 cells
[19] = Homo sapiens, HepG2, CCK-8, incubation 24 h or 48 h, read-out: IC50 toward HepG2 cells

C=C[C@@](C)(/C=C/c1ccc(O)cc1)CCC=C(C)C [Bakuchiol, bakuchiol]
effect on ROS induction, L02 cells compared with HepG2 cells ([1]; 52 μmol/L): stronger effect on ROS induction in L02 cells than HepG2 cells
ROS generation [2]: promoted ROS generation
cell early apoptosis percentage [3]: markedly and progressively increased
effect on cell apoptosis (in words) [3]: induced apoptosis in a dose-dependent manner
necrotic cell percentages ([4]; 52 μmol/L, Figure 7I): 34.6%
IC50 [5, 17]: ~25 µM
effect on cell viability / hepatocyte toxicity (in words) [5]: more potent inhibitory effects on cell viability than other compounds
lipid accumulation, times higher than control ([6]; 13 μmol/L): 1.88 times
lipid accumulation, times higher than control ([6]; 26 μmol/L): 2.18 times
lipid accumulation, times higher than control ([6]; 52 μmol/L): 3.37 times
effect on ALP, ALT, and AST contents (in words, discussion) [7]: little effect
increase of ALP, ALT, and AST levels (discussion) [7]: five times
IC50 [8, 18]: 25.9 µM
IC50 [9, 19]: 34.5 µM
lipid accumulation, times higher than control ([10]; first of three doses (13 μmol/L)): 1.27 times
lipid accumulation, times higher than control ([10]; second of three doses (26 μmol/L)): 2.37 times
lipid accumulation, times higher than control ([10]; third of three doses (52 μmol/L)): 5.84 times

CC(C)=CCc1cc2c(cc1O)O[C@H](c1ccc(O)cc1)CC2=O [Bavachin, bavachin]
cell early apoptosis percentage [3]: markedly and progressively increased
apoptotic cell percentage ([4]; L02 cells, increased from 6.7%, concentration not given): 44.47%
IC50 [5, 17]: ~30 µM
effect on cell viability / hepatocyte toxicity (in words) [5]: intense repression of cell viability
ROS level [11]: increased
ALP, ALT, and AST contents [12]: increased
IC50 [8, 18]: 33.9 µM
IC50 [9, 19]: 34.8 µM
effect on lipid accumulation, L02 cells compared with HepG2 cells ([13]; human, 24 h, 68 μmol/L): stronger inducing effect on lipid accumulation in the HepG2 cells

O=c1ccc2ccc3occc3c2o1 [Isopsoralen, isopsoralen]
effect on cell viability / hepatocyte toxicity (in words) [5]: little hepatocyte toxicity; also recorded: very low or no toxicity
IC50 ([8]; Homo sapiens, L02, read-out: IC50 toward L02 cells): 77.9 µM
IC50 ([9]; Homo sapiens, HepG2, read-out: IC50 toward HepG2 cells): 174 µM

CC(C)=CCc1cc(-c2coc3cc(O)ccc3c2=O)ccc1O [Neobavaisoflavone, neobavaisoflavone]
effect on ROS induction, L02 cells compared with HepG2 cells [1]: stronger effect on ROS induction in L02 cells than HepG2 cells
cell early apoptosis percentage [3]: markedly and progressively increased
effect on cell apoptosis (in words) [3]: induced apoptosis in a dose-dependent manner
effect on cell viability / hepatocyte toxicity (in words) [5]: intense repression of cell viability
ALP, ALT, and AST contents [12]: increased
IC50 [8, 18]: 47.8 µM
IC50 [9, 19]: 51.7 µM

O=c1ccc2cc3ccoc3cc2o1 [Psoralen, psoralen]
effect on cell viability / hepatocyte toxicity (in words) [5]: very low or no toxicity
effect on cell viability / hepatocyte toxicity (in words) ([5]; listed as psoralen): little hepatocyte toxicity
IC50 [8, 18]: 284 µM
IC50 [9, 19]: 739 µM
IC50 [14]: ~400 µM

CC(C)=CCc1cc2c(cc1O)oc(=O)c1c3ccc(O)cc3oc21 [Psoralidin, psoralidin]
ALP level, times higher than control [15]: 5.7 times
AST level, times higher than control [15]: 5.4 times
effect on cell apoptosis (in words) [3]: little effect on cell apoptosis
apoptotic cell percentage ([3]; 46 μmol/L, 48 h, Figure 7C,D): 17%
IC50 [5, 17]: ~25 µM
effect on cell viability / hepatocyte toxicity (in words) [5]: more potent inhibitory effects on cell viability than other compounds
increase of ALP, ALT, and AST levels (discussion) [7]: five times
induction of ALP, ALT, and AST contents [7]: more than fivefold
IC50 [8, 18]: 23.1 µM
IC50 [9, 19]: 23.4 µM
effect on lipid accumulation, L02 cells compared with HepG2 cells ([13]; human, 24 h): more substantial effect on lipid accumulation in L02 cells than HepG2 cells

bavachinin
MMP levels [16]: reduced
ROS level ([2]; HepG2 cells, 30 and 60 μmol/L, 24 h): increased
cell apoptosis at low dose concentration ([3]; 15 μmol/L, 48 h): induced cell apoptosis
cell early apoptosis percentage ([3]; as the concentration increased, compared with the control): markedly and progressively increased
effect on cell viability / hepatocyte toxicity (in words) [5]: intense repression of cell viability
IC50 ([5]; cell line not distinguished): ~30 µM
ALP, ALT, and AST contents ([12]; L02 cells, high dosage, 24 h): increased
IC50 ([8]; CCK-8, incubation 24 h or 48 h, read-out: IC50 toward L02 cells): 29.8 µM
IC50 ([9]; CCK-8, incubation 24 h or 48 h, read-out: IC50 toward HepG2 cells): 29.1 µM
effect on lipid accumulation, L02 cells compared with HepG2 cells ([13]; 60 μmol/L): more substantial effect on lipid accumulation in L02 cells than HepG2 cells
lipid accumulation levels ([13]; L02 and HepG2 cells, 24 h, p < 0.05, p < 0.01): promoted lipid accumulation
